Patent US8952024B2, “Herbicidal pyrimidone derivatives” (E I du Pont de Nemours and Company, priority 2009, dated 2015)

How the values were obtained:
Assay type in all cases: in vivo
[1] = tested on: barnyardgrass (Echinochloa crus-galli); assay: Test A pre-/postemergence plant response
From the text: (§1) Seeds of barnyardgrass (Echinochloa crus-galli), large crabgrass (Digitaria sanguinalis), giant foxtail (Setaria faberii), morningglory (Ipomoea spp.), pigweed (Amaranthus retroflexus), velvetleaf (Abutilon theophrasti), wheat (Triticum aestivum) and corn (Zea mays) were planted into a blend of loam soil and sand and treated preemergence with a directed soil spray using test chemicals formulated in a non-phytotoxic solvent mixture which included a surfactant. At the same time these species were also treated with postemergence applications of test compounds formulated in the same manner.
(§2) Plants ranged in height from two to ten cm and were in the one- to two-leaf stage for the postemergence treatment. Treated plants and untreated controls were maintained in a greenhouse for approximately ten days, after which time all treated plants were compared to untreated controls and visually evaluated for injury. Plant response ratings, summarized in Table A, are based on a 0 to 100 scale where 0 is no effect and 100 is complete control. A dash (-) response means no test result.

corn (Zea mays) = assay: Test A pre-/postemergence plant response
From the text: as §1, §2

[2] = tested on: giant foxtail (Setaria faberii); assay: Test A pre-/postemergence plant response
From the text: as §1, §2

[3] = tested on: large crabgrass (Digitaria sanguinalis); assay: Test A pre-/postemergence plant response
From the text: as §1, §2

[4] = tested on: morningglory (Ipomoea spp.); assay: Test A pre-/postemergence plant response
From the text: as §1, §2

[5] = tested on: pigweed (Amaranthus retroflexus); assay: Test A pre-/postemergence plant response
From the text: as §1, §2

[6] = tested on: velvetleaf (Abutilon theophrasti); assay: Test A pre-/postemergence plant response
From the text: as §1, §2

[7] = tested on: wheat (Triticum aestivum); assay: Test A pre-/postemergence plant response
From the text: as §1, §2

[8] = tested on: barnyardgrass (Echinochloa crus-galli); assay: Test B flooded paddy test; conditions: for Plant response rating, Flood, Barnyardgrass: 250 g ai/ha, flooded paddy test, visual rating on 0 to 100 scale (0 no effect, 100 complete control) after 13 to 15 days; for Plant response rating, Barnyardgrass: Flood (flooded paddy test), 62 g ai/ha, scale 0 to 100, 0 is no effect, 100 is complete control, 13 to 15 days
From the text: (§3) Plant species in the flooded paddy test consisted of rice (Oryza sativa), umbrella sedge (Cyperus difformis), ducksalad (Heteranthera limosa) and barnyardgrass (Echinochloa crus-galli) grown to the 2-leaf stage for testing. At the time of treatment, test pots were flooded with water to 3 cm above the soil surface, treated by application of test compounds directly to the paddy water, and then maintained at that water depth for the duration of the test.
(§4) Treated plants and controls were maintained in a greenhouse for 13 to 15 days, after which time all treated plants were visually evaluated and compared to controls. Plant response ratings, summarized in Table B, are based on a scale of 0 to 100 where 0 is no effect and 100 is complete control. A dash (-) response means no test result.

[9] = tested on: ducksalad (Heteranthera limosa); assay: Test B flooded paddy test; conditions: for Plant response rating, Flood, Ducksalad: 250 g ai/ha, flooded paddy test, visual rating on 0 to 100 scale (0 no effect, 100 complete control) after 13 to 15 days; for Plant response rating, Ducksalad: Flood (flooded paddy test), 62 g ai/ha, scale 0 to 100, 0 is no effect, 100 is complete control, 13 to 15 days
From the text: as §3, §4

rice (Oryza sativa) = assay: Test B flooded paddy test; conditions: for Plant response rating, Flood, Rice: 250 g ai/ha, flooded paddy test, visual rating on 0 to 100 scale (0 no effect, 100 complete control) after 13 to 15 days; for Plant response rating, Rice: Flood (flooded paddy test), 62 g ai/ha, scale 0 to 100, 0 is no effect, 100 is complete control, 13 to 15 days
From the text: as §3, §4

[10] = tested on: umbrella sedge (Cyperus difformis); assay: Test B flooded paddy test; conditions: for Plant response rating, Flood, Sedge, Umbrella: 250 g ai/ha, flooded paddy test, visual rating on 0 to 100 scale (0 no effect, 100 complete control) after 13 to 15 days; for Plant response rating, Sedge, Umbrella: Flood (flooded paddy test), 62 g ai/ha, scale 0 to 100, 0 is no effect, 100 is complete control, 13 to 15 days
From the text: as §3, §4

[11] = Postemergence, 125 g ai/ha, visual injury, 0 to 100 scale (0 no effect, 100 complete control), approx. ten days
[12] = Postemergence, 500 g ai/ha, 0 to 100 scale, 0 = no effect, 100 = complete control, approx. ten days
[13] = Preemergence, 125 g ai/ha, 0 to 100 scale, 0 = no effect, 100 = complete control
[14] = Preemergence, 500 g ai/ha, visual injury, 0 to 100 scale (0 no effect, 100 complete control), approx. ten days

Row | Compound | Barnyardgrass plant response rating [1, 11] | Plant response rating, Barnyardgrass [1, 12] | Plant response rating, Barnyardgrass [1, 13] | Plant response rating, Barnyardgrass [1, 14] | Corn plant response rating (corn (Zea mays); [11]) | Plant response rating, Corn (corn (Zea mays); [12]) | Plant response rating, Corn (corn (Zea mays); [13]) | Plant response rating, Corn (corn (Zea mays); [14]) | Foxtail, Giant plant response rating [2, 11] | Plant response rating, Foxtail, Giant [2, 12] | Plant response rating, Foxtail, Giant [2, 13] | Plant response rating, Foxtail, Giant [2, 14] | Crabgrass, Large plant response rating [3, 11] | Plant response rating, Crabgrass, Large [3, 12] | Plant response rating, Crabgrass, Large [3, 13] | Plant response rating, Crabgrass, Large [3, 14] | Morningglory plant response rating [4, 11] | Plant response rating, Morningglory [4, 12] | Plant response rating, Morningglory [4, 13] | Plant response rating, Morningglory [4, 14] | also measured
1 | Cc1ccc(-n2c(-c3ccccc3)ncc(C(=O)C3=C(O)CCCC3=O)c2=O)cc1C [Compound 32] | 20 | 80 | 0 | 90 | 0 | 10 | 0 | 0 | 30 | 90 | 10 | 90 | 50 | 90 | 20 | 90 | 50 | 100 | 0 | 80 | Pigweed plant response rating [5, 11]: 100; Plant response rating, Pigweed [5, 12]: 100; Plant response rating, Pigweed [5, 13]: 30; Plant response rating, Pigweed [5, 14]: 100; Velvetleaf plant response rating [6, 11]: 100; Plant response rating, Velvetleaf [6, 12]: 100; Plant response rating, Velvetleaf [6, 13]: 20; Plant response rating, Velvetleaf [6, 14]: 70; Wheat plant response rating [7, 11]: 0; Plant response rating, Wheat [7, 12]: 30; Plant response rating, Wheat [7, 13]: 0; Plant response rating, Wheat [7, 14]: 20; Plant response rating, Flood, Barnyardgrass [8]: 40; Plant response rating, Barnyardgrass [8]: 10; Plant response rating, Flood, Ducksalad [9]: 95; Plant response rating, Ducksalad [9]: 75; Plant response rating, Flood, Rice (rice (Oryza sativa)): 30; Plant response rating, Rice (rice (Oryza sativa)): 0; Plant response rating, Flood, Sedge, Umbrella [10]: 90; Plant response rating, Sedge, Umbrella [10]: 75
2 | Cc1ccc(-n2c(-c3ccccc3)ncc(C(=O)C3=C(O)CCCC3=O)c2=O)c(Cl)c1 [Compound 41] | 50 | 90 | 0 | 80 | 0 | 10 | 0 | 0 | 20 | 80 | 10 | 30 | 20 | 70 | 20 | 80 | 10 | 70 | 0 | 20 | Pigweed plant response rating [5, 11]: 100; Plant response rating, Pigweed [5, 12]: 100; Plant response rating, Pigweed [5, 13]: 90; Plant response rating, Pigweed [5, 14]: 90; Velvetleaf plant response rating [6, 11]: 100; Plant response rating, Velvetleaf [6, 12]: 100; Plant response rating, Velvetleaf [6, 13]: 30; Plant response rating, Velvetleaf [6, 14]: 80; Wheat plant response rating [7, 11]: 0; Plant response rating, Wheat [7, 12]: 0; Plant response rating, Wheat [7, 13]: 0; Plant response rating, Wheat [7, 14]: 0; Plant response rating, Flood, Barnyardgrass [8]: 30; Plant response rating, Barnyardgrass [8]: 0; Plant response rating, Flood, Ducksalad [9]: 75; Plant response rating, Ducksalad [9]: 70; Plant response rating, Flood, Rice (rice (Oryza sativa)): 0; Plant response rating, Rice (rice (Oryza sativa)): 0; Plant response rating, Flood, Sedge, Umbrella [10]: 80; Plant response rating, Sedge, Umbrella [10]: 70
